Measured values as given in PubChem BioAssay (NCI).
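Cultured in 96-well plates, cells were exposed to test compound for 48 hours across five concentrations. GI50 marks 50% less growth. TGI marks complete inhibition of growth.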

What was measured:
Assay in all cases: growth of human tumour cells (NCI), 48 h
HOP-92 NSCLC = tested on: HOP-92 NSCLC
HS 578T breast = tested on: HS 578T breast
MDA-MB-435 = tested on: MDA-MB-435
OVCAR-4 ovarian = tested on: OVCAR-4 ovarian
OVCAR-8 ovarian = tested on: OVCAR-8 ovarian
RXF 393 renal = tested on: RXF 393 renal
SNB-75 CNS = tested on: SNB-75 CNS
UACC-62 melanoma = tested on: UACC-62 melanoma
DLD-1 colon = tested on: DLD-1 colon
M19-MEL melanoma = tested on: M19-MEL melanoma

| SMILES | GI50 (HOP-92 NSCLC) | TGI (HOP-92 NSCLC) | GI50 (HS 578T breast) | TGI (HS 578T breast) | GI50 (MDA-MB-435) | TGI (MDA-MB-435) | GI50 (OVCAR-4 ovarian) | TGI (OVCAR-4 ovarian) | GI50 (OVCAR-8 ovarian) | TGI (OVCAR-8 ovarian) | GI50 (RXF 393 renal) | TGI (RXF 393 renal) | GI50 (SNB-75 CNS) | TGI (SNB-75 CNS) | GI50 (UACC-62 melanoma) | TGI (UACC-62 melanoma) | TGI (DLD-1 colon) | TGI (M19-MEL melanoma) |
| --- | --- | --- | --- | --- | --- | --- | --- | --- | --- | --- | --- | --- | --- | --- | --- | --- | --- | --- |
| CC(C)C[C@H](NC(=O)[C@@H](O)[C@H](N)Cc1ccc([N+](=O)[O-])cc1)C(=O)O | > 25 µM | > 25 µM | > 25 µM | > 25 µM | > 25 µM | > 25 µM | > 25 µM | > 25 µM | > 25 µM | > 25 µM | 19.2 µM | > 25 µM | > 25 µM | > 25 µM | > 25 µM | > 25 µM |  |  |
| COc1cc(C)c(O)c(C(=O)O)c1 |  |  |  |  |  |  |  | > 100 µM |  | > 100 µM |  | > 100 µM |  | > 100 µM |  | > 100 µM | > 100 µM | > 100 µM |
| Cc1ccc(Sc2ccc(C)cc2[N+](=O)[O-])c([N+](=O)[O-])c1 |  | > 100 µM |  |  |  |  |  | > 100 µM |  | > 100 µM |  | > 100 µM |  | > 100 µM |  | > 100 µM |  | > 100 µM |
| Cc1[nH]c2ccccc2c1CCNCc1ccc(/C=C/C(=O)NO)cc1 | < 0.01 µM | < 0.01 µM | < 0.01 µM | 0.0554 µM | < 0.01 µM | 0.0502 µM | 0.015 µM | 0.0585 µM | < 0.01 µM | 0.178 µM | < 0.0104 µM | 0.025 µM | < 0.0147 µM | 2.8 µM | < 0.01 µM | 0.0229 µM |  |  |
| C=C1CCC2[C@@H](CCC3[C@]2(C)CCC[C@]3(C)C(=O)OC)C1CCO (stereo partly specified) |  | 20.1 µM |  |  |  |  |  | 26.6 µM |  | 37.7 µM |  |  |  | 19.7 µM |  | 27.5 µM | 46.8 µM | 29.9 µM |
| O=C(N/N=C/c1cc([N+](=O)[O-])ccc1O)c1cccc2ccccc12 | 1.26 µM | 13 µM | 12.8 µM | > 100 µM | 7.18 µM | > 100 µM | 1.2 µM | 26.2 µM | 2.88 µM | > 100 µM | 4.14 µM | 35.1 µM | 6.2 µM | 44.7 µM | 2.98 µM | 26.4 µM |  |  |
| CCCCN(CCCC)c1ccc(C(=NC(C)CCCN(CC)CC)c2ccc(N(C)C)cc2)cc1 (stereo unspecified) | 0.609 µM | 1.71 µM | 0.884 µM | 2.05 µM | 0.783 µM | 1.57 µM | 1.09 µM | 3.34 µM | 0.99 µM | 2.09 µM | 0.73 µM | 1.46 µM | 0.734 µM | 1.56 µM | 0.909 µM | 1.91 µM |  |  |
| CC(=O)NC1CC2Oc3ccc(C)cc3C(C)(O2)C1O (stereo unspecified) |  |  |  |  |  |  |  |  |  | > 100 µM |  | > 100 µM |  | > 100 µM |  | > 100 µM | > 100 µM | > 100 µM |
| CCN(CC)CC(C(=O)Nc1c(C)cccc1C)/C(C)=N\NC(=O)c1ccncc1 (stereo unspecified) |  | > 100 µM |  |  |  |  |  | > 100 µM |  | > 100 µM |  | > 100 µM |  | > 100 µM |  |  | > 100 µM | > 100 µM |
| COc1cc(/C=C/C(=O)c2sc(NNC(C)=O)nc2C)ccc1O |  | > 100 µM |  |  |  |  |  |  |  | > 100 µM |  | > 100 µM |  | > 100 µM |  | > 100 µM | > 100 µM |  |
| C=CCNC(=O)NCCCC(NC(C)=O)C(=O)NCc1ccccc1 (stereo unspecified) |  | > 100 µM |  |  |  |  |  | > 100 µM |  | > 100 µM |  | > 100 µM |  | > 100 µM |  | > 100 µM |  | > 100 µM |
